1 compound from article PMC12334608 (Nature Communications, 2025) can be followed below.

Structures are written as SMILES.

The test addresses T1, ACOX-1.1(N437A) (Caenorhabditis elegans, UniProt O62140, N437A).
T1 sequence (O62140 1-674 N437A): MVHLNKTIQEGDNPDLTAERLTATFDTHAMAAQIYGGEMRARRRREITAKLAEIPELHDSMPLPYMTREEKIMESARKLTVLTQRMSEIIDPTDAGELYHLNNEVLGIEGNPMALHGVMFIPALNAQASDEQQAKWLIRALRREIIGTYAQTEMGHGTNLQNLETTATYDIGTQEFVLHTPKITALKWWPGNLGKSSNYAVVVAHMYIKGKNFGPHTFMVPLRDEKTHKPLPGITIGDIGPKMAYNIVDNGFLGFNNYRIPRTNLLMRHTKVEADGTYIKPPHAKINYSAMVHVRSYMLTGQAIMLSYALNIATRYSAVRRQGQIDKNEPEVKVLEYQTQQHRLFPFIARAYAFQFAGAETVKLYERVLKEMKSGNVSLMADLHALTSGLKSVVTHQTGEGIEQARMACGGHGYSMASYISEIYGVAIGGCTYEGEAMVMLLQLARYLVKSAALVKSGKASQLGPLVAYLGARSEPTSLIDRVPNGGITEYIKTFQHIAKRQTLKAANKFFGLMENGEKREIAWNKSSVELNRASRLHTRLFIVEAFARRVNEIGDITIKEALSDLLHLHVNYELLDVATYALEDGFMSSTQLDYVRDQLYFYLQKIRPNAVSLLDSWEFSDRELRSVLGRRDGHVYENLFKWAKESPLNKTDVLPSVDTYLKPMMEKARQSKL
As to the kind of experiment: Enzyme-coupled kinetic assay, ACOX-1.1. The class given is biochemical, C. elegans.

Turning to `Nc1ncnc2c1ncn2[C@@H]1O[C@H](COP(=O)(O)OP(=O)(O)OP(=O)(O)O)[C@@H](O)[C@H]1O` [ATP], the “response of enzyme activity to ATP” value was “did not respond to ATP”.
